What was measured:
MCF-7 cells = assay: Western blot of apoptosis-related factors; assay type: cell-based, human; details: MCF-7 cell lysate; FIG. 12
Excerpt: (§1) The cell lysate of each type of cells treated with the chelating agents of test groups 6 and 10 was Western-blotted, and then an increase or a decrease in apoptosis-related factors in treated cells was confirmed using the indicated antibodies. […] Concentration-dependent apoptosis induction was also biochemically confirmed.

A549 cells = assay: Western blot of apoptosis-related factors; assay type: cell-based, human; details: A549 cell lysate; FIG. 12
Excerpt: as §1

HSC-2 cells = assay: Western blot of apoptosis-related factors; assay type: cell-based, human; details: HSC-2 cell lysate; FIG. 12
Excerpt: as §1

HCT116 cells = assay: Apoptosis induction, TUNEL staining; assay type: cell-based, human; details: 10 μg/mL, 48 hours, FIG. 11B
Experimental: Furthermore, the apoptosis-inducing effects of the chelating agents of test groups 6 and 10 on tumors were confirmed. First, 100 μg/mL of the chelating agent of test group 6 or 50 μg/mL of the chelating agent of test group 10 was added to HSC-2 cells in a culture solution. After 48 hours of reaction, TUNEL Assay was carried out. Specifically, apoptosis induction was evaluated by the TUNEL staining method using a MK500 in situ Apoptosis Detection Kit (Takara Bio Inc.).
Similarly, the apoptosis-inducing effects of the chelating agent of test group 6 or 10 on HCT116 cells were confirmed. 10 μg/mL of the chelating agent of test group 6 was added and 6.5 µg/mL of the chelating agent of test group 10 was added to the cells. After 48 hours of reaction, TUNEL staining was carried out similarly to the above.

[1] = tested on: A. actinomycetemcomitans AaY4 (ATCC); assay: Antibacterial activity, turbidity and ATP assay; assay type: cell-based, Aggregatibacter actinomycetemcomitans; details: anaerobic culture 37° C., 18 hours; FIGS. 7A, 7B
Experimental: A bacterial strain of one of periodontopathic bacteria, A. actinomycetemcomitans, used herein was AaY4 (ATCC). With the use of a liquid medium prepared by adding a yeast extract, sodium bicarbonate and the chelating agent of each test group to TSB medium, anaerobic culture (Anaeropack-anaerobic) was performed at 37° C. for 18 hours. Turbidity was measured using absorbance (OD570 or 595 nm), and cell activity was measured using an ATP assay kit. Results were as depicted in FIGS. 7A and 7B.

`Cl.OCC1OC(O)C(NCc2ccc(O)c(O)c2O)C(O)C1O` (centres unmarked) [Test group 6] was tested, and the “PARP cleaved fragments and caspase-3-cleaved fragments (Western blot)” value (MCF-7 cells) was “PARP cleaved fragments and caspase-3-cleaved fragments were confirmed”, the “PARP cleaved fragments and caspase-3-cleaved fragments (Western blot)” value (A549 cells) was “PARP cleaved fragments and caspase-3-cleaved fragments were confirmed” and the “PARP cleaved fragments and caspase-3-cleaved fragments (Western blot)” value (HSC-2 cells) was “PARP cleaved fragments and caspase-3-cleaved fragments were confirmed”. For the same molecule, the “apoptosis-inducing effects (TUNEL staining)” value (HCT116 cells) was “green-stained cells indicating apoptosis were confirmed” and the “antimicrobial effects on A. actinomycetemcomitans (turbidity, ATP activity)” value [1] was “strong antimicrobial effects”.
